Measured values as given in patent publication US10251892B2, “Bicyclic heterocycles as FGFR4 inhibitors” (Incyte Corporation, priority 2015, dated 2019).

Biological target: FGFR3 enzyme (Homo sapiens (Human), UniProt P22607)
Test: FGFR Enzymatic Assay (peptide phosphorylation, FRET), FGFR3
Type: biochemical
Settings: IC50 ratio showing FGFR3 selectivity; pre-incubated for 4 hours
Method: The inhibitor potency of the exemplified compounds was measured in an enzyme assay that measures peptide phosphorylation using FRET measurements to detect product formation. Inhibitors were serially diluted in DMSO and a volume of 0.5 μL was transferred to the wells of a 384-well plate.
GraphPad prism3 was used to analyze the data.

FGFR3 enzyme, sequence (P22607 23-806): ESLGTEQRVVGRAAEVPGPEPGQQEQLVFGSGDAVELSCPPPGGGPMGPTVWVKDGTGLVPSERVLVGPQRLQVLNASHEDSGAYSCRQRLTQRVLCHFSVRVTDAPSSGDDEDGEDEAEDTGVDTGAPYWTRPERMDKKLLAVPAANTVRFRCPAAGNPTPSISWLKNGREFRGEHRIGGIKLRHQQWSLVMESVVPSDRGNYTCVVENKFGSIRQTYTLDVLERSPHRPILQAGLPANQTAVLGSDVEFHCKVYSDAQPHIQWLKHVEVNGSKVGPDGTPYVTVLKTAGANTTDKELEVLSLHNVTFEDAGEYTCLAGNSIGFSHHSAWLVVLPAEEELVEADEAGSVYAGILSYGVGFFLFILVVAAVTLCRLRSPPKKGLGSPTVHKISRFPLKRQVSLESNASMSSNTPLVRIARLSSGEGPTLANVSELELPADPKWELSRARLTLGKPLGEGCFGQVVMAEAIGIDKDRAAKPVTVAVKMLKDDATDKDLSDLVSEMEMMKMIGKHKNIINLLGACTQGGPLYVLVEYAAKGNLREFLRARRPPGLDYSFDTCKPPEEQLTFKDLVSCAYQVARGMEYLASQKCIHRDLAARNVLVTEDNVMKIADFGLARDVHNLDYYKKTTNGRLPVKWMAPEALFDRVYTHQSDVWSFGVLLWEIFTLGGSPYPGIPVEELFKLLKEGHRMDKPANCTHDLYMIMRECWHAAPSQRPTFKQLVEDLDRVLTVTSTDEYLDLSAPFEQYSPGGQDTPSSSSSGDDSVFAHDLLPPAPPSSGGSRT

Row | Structure (SMILES) | FGFR1/FGFR3 | FGFR4/FGFR3
1 | COc1cc(OC)c(F)c(N2Cc3cnc(-c4cn(C)nc4C)cc3N(c3ccc(S(C)(=O)=O)cc3)C2=O)c1F [Example 98, 3-(2,6-difluoro-3,5-dimethoxyphenyl)-7-(1,3-dimethyl-1H-pyrazol-4-yl)-1-(4-(methylsulfonyl)phenyl)-3,4-dihydropyrido[4,3-d]pyrimidin-2(1H)-one] | >5 | >10
2 | COc1cc(OC)c(F)c(N2Cc3cnc(-c4cn(C)nc4C)cc3N(C(C)C)C2=O)c1F [Example 90, 3-(2,6-difluoro-3,5-dimethoxyphenyl)-7-(1,3-dimethyl-1H-pyrazol-4-yl)-1-isopropyl-3,4-dihydropyrido[4,3-d]pyrimidin-2(1H)-one] | >5 | >5
3 | COc1cc(OC)c(F)c(N2Cc3cnc(-c4cn(C)nc4C)cc3N(Cc3ccncn3)C2=O)c1F [Example 65, 3-(2,6-difluoro-3,5-dimethoxyphenyl)-7-(1,3-dimethyl-1H-pyrazol-4-yl)-1-(pyrimidin-4-ylmethyl)-3,4-dihydropyrido[4,3-d]pyrimidin-2(1H)-one] | >5 | >10
4 | COc1cc(OC)c(F)c(N2Cc3cnc(-c4cn(C)nc4C)cc3N(Cc3csc(C)n3)C2=O)c1F [Example 95, 3-(2,6-difluoro-3,5-dimethoxyphenyl)-7-(1,3-dimethyl-1H-pyrazol-4-yl)-1-((2-methylthiazol-4-yl)methyl)-3,4-dihydropyrido[4,3-d]pyrimidin-2(1H)-one] | >5 | >10
5 | COc1cc(OC)c(F)c(N2Cc3cnc(-c4cn(CC(=O)N5CCOCC5)nc4C)cc3C3(CC3)C2=O)c1F [Example 159, 2′-(2,6-difluoro-3,5-dimethoxyphenyl)-6′-(3-methyl-1-(2-morpholino-2-oxoethyl)-1H-pyrazol-4-yl)-1′H-spiro[cyclopropane-1,4′-[2,7]naphthyridin]-3′(2′H)-one] | >5 | >3
6 | COc1cc(OC)c(F)c(N2Cc3cnc(-c4cn(C5CCN(CC#N)C5)nc4C)cc3C3(CC3)C2=O)c1F (centres unmarked) [Example 154, 2-(3-(4-(2′-(2,6-difluoro-3,5-dimethoxyphenyl)-3′-oxo-2′,3′-dihydro-1′H-spiro[cyclopropane-1,4′-[2,7]naphthyridine]-6′-yl)-3-methyl-1H-pyrazol-1-yl)pyrrolidin-1-yl)acetonitrile] | >5 | >3
7 | COc1cc(OC)c(F)c(N2Cc3cnc(-c4cn(C)nc4C)cc3N(c3ccn(C)n3)C2=O)c1F [Example 100, 3-(2,6-difluoro-3,5-dimethoxyphenyl)-7-(1,3-dimethyl-1H-pyrazol-4-yl)-1-(1-methyl-1H-pyrazol-3-yl)-3,4-dihydropyrido[4,3-d]pyrimidin-2(1H)-one] | >5 | >5
8 | CNC(=O)c1ccc(CN2C(=O)N(c3c(F)c(OC)cc(OC)c3F)Cc3cnc(-c4cn(C)nc4C)cc32)cc1 [Example 62, 4-((3-(2,6-difluoro-3,5-dimethoxyphenyl)-7-(1,3-dimethyl-1H-pyrazol-4-yl)-2-oxo-3,4-dihydropyrido[4,3-d]pyrimidin-1(2H)-yl)methyl)-N-methylbenzamide] | >10 | >5
9 | COc1cccc(N2C(=O)N(c3c(F)c(OC)cc(OC)c3F)Cc3cnc(-c4cn(C)nc4C)cc32)c1 [Example 109, 3-(2,6-difluoro-3,5-dimethoxyphenyl)-7-(1,3-dimethyl-1H-pyrazol-4-yl)-1-(3-methoxyphenyl)-3,4-dihydropyrido[4,3-d]pyrimidin-2(1H)-one] | >3 | >10
10 | COc1cc(OC)c(F)c(N2Cc3cnc(-c4cn(C)nc4C)cc3N(c3cccc(-c4cnnn4C)c3)C2=O)c1F [Example 89, 3-(2,6-difluoro-3,5-dimethoxyphenyl)-7-(1,3-dimethyl-1H-pyrazol-4-yl)-1-(3-(1-methyl-1H-1,2,3-triazol-5-yl)phenyl)-3,4-dihydropyrido[4,3-d]pyrimidin-2(1H)-one] | >5 | >10
11 | CCN1C(=O)N(c2c(F)c(OC)cc(OC)c2F)Cc2cnc(-c3ccc(C(=O)NCCO)nc3)cc21 [Example 177, 5-(3-(2,6-difluoro-3,5-dimethoxyphenyl)-1-ethyl-2-oxo-1,2,3,4-tetrahydropyrido[4,3-d]pyrimidin-7-yl)-N-(2-hydroxyethyl)picolinamide] | >5 | >10
12 | COc1cc(OC)c(F)c(N2Cc3cnc(-c4cn(C)nc4C)cc3N(c3ccc(C#N)cc3)C2=O)c1F [Example 44, 4-(3-(2,6-difluoro-3,5-dimethoxyphenyl)-7-(1,3-dimethyl-1H-pyrazol-4-yl)-2-oxo-3,4-dihydropyrido[4,3-d]pyrimidin-1(2H)-yl)benzonitrile] | >10 | >10

Second part, the molecule after the results:

Row | FGFR1/FGFR3 | FGFR4/FGFR3 | Structure (SMILES)
13 | >5 | >1 | COc1cc(OC)c(F)c(N2Cc3cnc(-c4cnn(CC5CCCS(=O)(=O)N5)c4)cc3C3(CC3)C2=O)c1F (centres unmarked) [Example 162, 2′-(2,6-difluoro-3,5-dimethoxyphenyl)-6′-{1-[(1,1-dioxido-1,2-thiazinan-3-yl)methyl]-1H-pyrazol-4-yl}-1′H-spiro[cyclopropane-1,4′-[2,7]naphthyridin]-3′(2′H)-one]
14 | >5 | >5 | CCN1C(=O)N(c2c(F)c(OC)cc(OC)c2F)Cc2cnc(-c3ccc(C(N)=O)nc3)cc21 [Example 184, 5-(3-(2,6-difluoro-3,5-dimethoxyphenyl)-1-ethyl-2-oxo-1,2,3,4-tetrahydropyrido[4,3-d]pyrimidin-7-yl)picolinamide]
15 | >5 | >1 | COc1cc(OC)c(F)c(N2Cc3cnc(-c4cn(C5CCS(=O)(=O)C5)nc4C)cc3C3(CC3)C2=O)c1F (centres unmarked) [Example 54, 2′-(2,6-difluoro-3,5-dimethoxyphenyl)-6′-[1-(1,1-dioxidotetrahydro-3-thienyl)-3-methyl-1H-pyrazol-4-yl]-1′,2′-dihydro-3′H-spiro[cyclopropane-1,4′-[2,7]naphthyridin]-3′-one]
16 | >1 | >5 | CCCN1C(=O)N(c2c(F)c(OC)cc(OC)c2F)Cc2cnc(-c3cn(C)nc3C)cc21 [Example 30, 3-(2,6-difluoro-3,5-dimethoxyphenyl)-7-(1,3-dimethyl-1H-pyrazol-4-yl)-1-propyl-3,4-dihydropyrido[4,3-d]pyrimidin-2(1H)-one]
17 | >5 | >5 | COc1cc(OC)c(F)c(N2Cc3cnc(-c4cn(C)nc4C)cc3N(C3(C#N)CC3)C2=O)c1F [Example 91, 1-(3-(2,6-difluoro-3,5-dimethoxyphenyl)-7-(1,3-dimethyl-1H-pyrazol-4-yl)-2-oxo-3,4-dihydropyrido[4,3-d]pyrimidin-1(2H)-yl)cyclopropanecarbonitrile]
18 | >5 | >5 | COc1cc(OC)c(F)c(N2Cc3cnc(-c4cn(C)nc4C)cc3N(C3CC3)C2=O)c1F [Example 83, 1-cyclopropyl-3-(2,6-difluoro-3,5-dimethoxyphenyl)-7-(1,3-dimethyl-1H-pyrazol-4-yl)-3,4-dihydropyrido[4,3-d]pyrimidin-2(1H)-one]
19 | >5 | >5 | CCN1C(=O)N(c2c(F)c(OC)cc(OC)c2F)Cc2cnc(-c3ccc(C(C)(C)C#N)nc3)cc21 [Example 26, 2-(5-(3-(2,6-difluoro-3,5-dimethoxyphenyl)-1-ethyl-2-oxo-1,2,3,4-tetrahydropyrido[4,3-d]pyrimidin-7-yl)pyridin-2-yl)-2-methylpropanenitrile]
20 | >10 | >10 | COc1cc(OC)c(F)c(N2Cc3cnc(-c4cn(C)nc4C)cc3N(Cc3cnn(C)c3C)C2=O)c1F [Example 48, 3-(2,6-difluoro-3,5-dimethoxyphenyl)-7-(1,3-dimethyl-1H-pyrazol-4-yl)-1-[(1,5-dimethyl-1H-pyrazol-4-yl)methyl]-3,4-dihydropyrido[4,3-d]pyrimidin-2(1H)-one]
21 | >5 | >3 | COc1cc(OC)c(F)c(N2Cc3cnc(-c4cnn(CCN5CCC(OC)CC5)c4)cc3C3(CC3)C2=O)c1F [Example 152, 2′-(2,6-difluoro-3,5-dimethoxyphenyl)-6′-(1-(2-(4-methoxypiperidin-1-yl)ethyl)-1H-pyrazol-4-yl)-1′H-spiro[cyclopropane-1,4′-[2,7]naphthyridin]-3′(2′H)-one]
22 | >10 | >10 | CCn1cc(CN2C(=O)N(c3c(F)c(OC)cc(OC)c3F)Cc3cnc(-c4cn(C)nc4C)cc32)cn1 [Example 39, 3-(2,6-difluoro-3,5-dimethoxyphenyl)-7-(1,3-dimethyl-1H-pyrazol-4-yl)-1-((1-ethyl-1H-pyrazol-4-yl)methyl)-3,4-dihydropyrido[4,3-d]pyrimidin-2(1H)-one]
23 | >10 | >3 | COc1cc(OC)c(F)c(N2Cc3cnc(-c4cnn(C5CCN(S(C)(=O)=O)C5)c4)cc3C3(CC3)C2=O)c1F (centres unmarked) [Example 147, 2′-(2,6-difluoro-3,5-dimethoxyphenyl)-6′-(1-(1-(methylsulfonyl)pyrrolidin-3-yl)-1H-pyrazol-4-yl)-1′H-spiro[cyclopropane-1,4′-[2,7]naphthyridin]-3′(2′H)-one]
24 | >10 | >1 | COc1cc(OC)c(F)c(N2Cc3cnc(-c4cn(CCN5CCOCC5)nc4C)cc3C3(CC3)C2=O)c1F [Example 52, 2′-(2,6-difluoro-3,5-dimethoxyphenyl)-6′-(3-methyl-1-(2-morpholinoethyl)-1H-pyrazol-4-yl)-1′H-spiro[cyclopropane-1,4′-[2,7]naphthyridin]-3′(2′H)-one]
25 | >5 | >10 | CCN1C(=O)N(c2c(F)c(OC)cc(OC)c2F)Cc2cnc(-c3ccc(C4(C#N)CCC4)cc3)cc21 [Example 181, 1-(4-(3-(2,6-difluoro-3,5-dimethoxyphenyl)-1-ethyl-2-oxo-1,2,3,4-tetrahydropyrido[4,3-d]pyrimidin-7-yl)phenyl)cyclobutanecarbonitrile]
